In patent US20250171430A1, “PYRAZOLYL COMPOUNDS AS KV7 CHANNEL ACTIVATORS” (Biohaven Therapeutics Ltd., priority 2022, published 2025):

molecular target: T1, Kv7.2/7.3 (Homo sapiens, UniProt O43525+O43526); test: Kv7.2/7.3 Activation Assay (Thallium Flux Assay); format: cell-based; conditions: hKV7.2/7.3 cell line; test compound at single concentration of 10 μM; fluorescence at 90 sec normalized to positive control (retigabine, 30 μM)
T1 construct: Kv7.2 tetracycline-induced, Kv7.3 constitutive
Method in brief: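 Single-point activity at 10 μM (0.1% DMSO, HEPES-buffered saline, pH 7.4) was scored from fluorescence at 90 s relative to 30 μM retigabine. Categories were none <0.15, moderate 0.15-0.7 and high >0.7. Thallium influx after stimulus addition was followed with FluxOR II Green dye in hKv7.2/7.3 cells, Kv7.2 expressed under overnight tetracycline (10 ng/mL) induction.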

| Structure (SMILES) | Kv7.2/7.3 Activity |
| --- | --- |
| Cn1nc(NC(=O)OC2CC(F)(F)C2)c(C2CCC2)c1-c1cc(F)c(F)c(F)c1 [Compound 287, 3,3-difluorocyclobutyl (4-cyclobutyl-1-methyl-5-(3,4,5-trifluorophenyl)-1H-pyrazol-3-yl)carbamate] | ++ (“++” High Activity ≥ 0.7) |
| Cn1nc(NC(=O)NC2CC(F)(F)C2)c(C2CCC2)c1-c1cc(F)c(F)c(F)c1 [Compound 288, 1-(4-cyclobutyl-1-methyl-5-(3,4,5-trifluorophenyl)-1H-pyrazol-3-yl)-3-(3,3-difluorocyclobutyl)urea] | ++ (“++” High Activity ≥ 0.7) |
| Cn1nc(NC(=O)C2CC(F)(F)C2)c(C2CCC2)c1C1CCC(F)(F)CC1 [Compound 289, N-(4-cyclobutyl-5-(4,4-difluorocyclohexyl)-1-methyl-1H-pyrazol-3-yl)-3,3-difluorocyclobutane-1-carboxamide] | ++ (“++” High Activity ≥ 0.7) |
| Cn1nc(NC(=O)NC2CC(F)(F)C2)c(C2CCC2)c1C1CC(F)(F)C1 [Compound 290, 1-(4-cyclobutyl-5-(3,3-difluorocyclobutyl)-1-methyl-1H-pyrazol-3-yl)-3-(3,3-difluorocyclobutyl)urea] | ++ (“++” High Activity ≥ 0.7) |
| CN(CC(F)(F)F)C(=O)Nc1nn(C)c(C2CC(F)(F)C2)c1C1CCC1 [Compound 291, 3-(4-cyclobutyl-5-(3,3-difluorocyclobutyl)-1-methyl-1H-pyrazol-3-yl)-1-methyl-1-(2,2,2-trifluoroethyl)urea] | ++ (“++” High Activity ≥ 0.7) |
| Cn1nc(NC(=O)OC2CC(F)(F)C2)c(C2CCC2)c1C1CCC(F)(F)CC1 [Compound 292, 3,3-difluorocyclobutyl (4-cyclobutyl-5-(4,4-difluorocyclohexyl)-1-methyl-1H-pyrazol-3-yl)carbamate] | ++ (“++” High Activity ≥ 0.7) |
| Cn1nc(NC(=O)NCC(F)(F)F)c(C2CCC2)c1C1CC(F)(F)C1 [Compound 293, 1-(4-cyclobutyl-5-(3,3-difluorocyclobutyl)-1-methyl-1H-pyrazol-3-yl)-3-(2,2,2-trifluoroethyl)urea] | ++ (“++” High Activity ≥ 0.7) |
| Cn1nc(NC(=O)NCC(C)(C)C)c(C2CCC2)c1C1CC(F)(F)C1 [Compound 294, 1-(4-cyclobutyl-5-(3,3-difluorocyclobutyl)-1-methyl-1H-pyrazol-3-yl)-3-neopentylurea] | ++ (“++” High Activity ≥ 0.7) |
| Cn1nc(NC(=O)OC2CCC2)c(C2CCC2)c1C1CC(F)(F)C1 [Compound 295, cyclobutyl (4-cyclobutyl-5-(3,3-difluorocyclobutyl)-1-methyl-1H-pyrazol-3-yl)carbamate] | ++ (“++” High Activity ≥ 0.7) |
| Cn1nc(NC(=O)NCC(F)F)c(C2CCC2)c1C1CC(F)(F)C1 [Compound 296, 1-(4-cyclobutyl-5-(3,3-difluorocyclobutyl)-1-methyl-1H-pyrazol-3-yl)-3-(2,2-difluoroethyl)urea] | ++ (“++” High Activity ≥ 0.7) |
| Cn1nc(NC(=O)NCC2CC(F)(F)C2)c(C2CCC2)c1C1CC(F)(F)C1 [Compound 297, 1-(4-cyclobutyl-5-(3,3-difluorocyclobutyl)-1-methyl-1H-pyrazol-3-yl)-3-((3,3-difluorocyclobutyl)methyl)urea] | ++ (“++” High Activity ≥ 0.7) |
| Cn1nc(NC(=O)[C@H]2CC2(F)F)c(C2CCC2)c1-c1cnc(C(F)(F)F)s1 [Compound 298, (R)-N-(4-cyclobutyl-1-methyl-5-(2-(trifluoromethyl)thiazol-5-yl)-1H-pyrazol-3-yl)-2,2-difluorocyclopropane-1-carboxamide] | − (“−” No Activity < 0.15) |
